Assay results taken from the CheMixHub viscosity set.

Assay: xn = mol fraction of the nth substance listed

CCCC#N + CC(C)CO
viscosity [mPa·s], 101.33 kPa
Conditions | x2 = 0.0997 | x2 = 0.2 | x2 = 0.2986 | x2 = 0.3982 | x2 = 0.4962 | x2 = 0.5918 | x2 = 0.7022 | x2 = 0.8004 | x2 = 0.8991
298.15 K | 0.582 | 0.626 | 0.69 | 0.778 | 0.895 | 1.051 | 1.315 | 1.672 | 2.273
308.15 K | 0.516 | 0.551 | 0.6 | 0.667 | 0.756 | 0.874 | 1.069 | 1.323 | 1.742
318.15 K | 0.462 | 0.489 | 0.528 | 0.58 | 0.648 | 0.737 | 0.881 | 1.066 | 1.363

C1=C[C@H]2[C@@H](C1)[C@H]1C=C[C@@H]2C1 + CC(C)O
viscosity [mPa·s], 101.2 kPa
Conditions | x1 = 0.1015 | x1 = 0.1993 | x1 = 0.2999 | x1 = 0.4006 | x1 = 0.4998 | x1 = 0.5999 | x1 = 0.6977 | x1 = 0.7999 | x1 = 0.8995
293.15 K | 2.227 | 2.228 | 2.271 | 2.356 | 2.481 | 2.69 | 2.944 | 3.291 | 3.718
303.15 K | 1.69 | 1.7 | 1.737 | 1.811 | 1.918 | 2.09 | 2.314 | 2.581 | 2.919
313.15 K | 1.303 | 1.322 | 1.363 | 1.435 | 1.535 | 1.689 | 1.869 | 2.109 | 2.394

C1COCCO1 + CC(C)O
viscosity [mPa·s]
Conditions | 298.15 K | 303.15 K | 308.15 K | 313.15 K
101 kPa, x1 = 0.4 | 1.078 | – | – | –
101 kPa, x2 = 0.1382 | – | 0.9888 | 0.9165 | –
101 kPa, x2 = 0.2768 | – | 0.9414 | 0.8803 | –
101 kPa, x2 = 0.3911 | – | 0.9353 | 0.8656 | –
101 kPa, x2 = 0.4934 | – | 0.9403 | 0.8625 | –
101 kPa, x2 = 0.5928 | – | 0.9543 | 0.8778 | –
101 kPa, x2 = 0.6977 | – | 1.014 | 0.9221 | –
101 kPa, x2 = 0.7841 | – | 1.112 | 1.012 | –
101 kPa, x2 = 0.8535 | – | 1.259 | 1.128 | –
101 kPa, x2 = 0.929 | – | 1.47 | 1.308 | –
101.3 kPa, x1 = 0.038 | 1.821 | 1.578 | 1.38 | 1.218
101.3 kPa, x1 = 0.1103 | 1.479 | 1.312 | 1.17 | 1.039
101.3 kPa, x1 = 0.213 | 1.224 | 1.099 | 0.9913 | 0.8984
101.3 kPa, x1 = 0.3316 | 1.075 | 0.9775 | 0.887 | 0.8129
101.3 kPa, x1 = 0.3634 | 1.055 | 0.9613 | 0.8738 | 0.8044
101.3 kPa, x1 = 0.4318 | 1.014 | 0.9242 | 0.8492 | 0.7791
101.3 kPa, x1 = 0.5184 | 0.9926 | 0.91 | 0.835 | 0.7724
101.3 kPa, x1 = 0.6312 | 0.9873 | 0.9117 | 0.837 | 0.7769
101.3 kPa, x1 = 0.6592 | 0.9898 | 0.9161 | 0.8392 | 0.778
101.3 kPa, x1 = 0.787 | 1.048 | 0.9473 | 0.8747 | 0.8157
101.3 kPa, x1 = 0.891 | 1.101 | 1.01 | 0.9326 | 0.8715
101.3 kPa, x1 = 0.935 | 1.131 | 1.048 | 0.9724 | 0.8943

C[N+](C)(C)CC(=O)[O-] + CC(O)C(=O)O
viscosity [mPa·s]
Conditions | 293.15 K | 298.15 K | 303.15 K | 308.15 K | 313.15 K | 318.15 K | 323.15 K
100 kPa, x2 = 0.667 | – | 1266 | 818.6 | 544.6 | 374.6 | 260.5 | 190.2
100 kPa, x2 = 0.833 | 386.6 | 245.3 | 167.7 | 120.4 | 86.1 | 65.5 | 50.6
101 kPa, x1 = 0.5 | – | 17780 | – | – | – | 6043 | –

Brc1ccccc1 + CCC(C)=O
303.15 K, 101 kPa
Conditions | viscosity [mPa·s]
x2 = 0.1487 | 0.899
x2 = 0.2073 | 0.858
x2 = 0.3888 | 0.74
x2 = 0.5263 | 0.656
x2 = 0.7046 | 0.556
x2 = 0.8307 | 0.486

CC(C)N + CCC(C)=O
298.15 K, 101 kPa
Conditions | viscosity [mPa·s]
x2 = 0.0835 | 0.288
x2 = 0.1701 | 0.3
x2 = 0.26 | 0.314
x2 = 0.3534 | 0.33
x2 = 0.4505 | 0.345
x2 = 0.5515 | 0.358
x2 = 0.6567 | 0.37
x2 = 0.7663 | 0.371
x2 = 0.8806 | 0.372

C1COCCO1 + CCC(C)O
298.15 K, 101 kPa
Conditions | viscosity [mPa·s]
x1 = 0.0413 | 2.47
x1 = 0.1256 | 1.88
x1 = 0.236 | 1.474
x1 = 0.3042 | 1.324
x1 = 0.4175 | 1.173
x1 = 0.5 | 1.133
x1 = 0.5207 | 1.092
x1 = 0.5916 | 1.061
x1 = 0.7413 | 1.046
x1 = 0.8431 | 1.071
x1 = 0.9423 | 1.119

CCCC#N + CCC(C)O
viscosity [mPa·s], 101.33 kPa
Conditions | x2 = 0.1016 | x2 = 0.1946 | x2 = 0.2965 | x2 = 0.3938 | x2 = 0.4949 | x2 = 0.5951 | x2 = 0.6966 | x2 = 0.7945 | x2 = 0.8999
298.15 K | 0.572 | 0.605 | 0.652 | 0.717 | 0.811 | 0.945 | 1.141 | 1.435 | 1.982
308.15 K | 0.508 | 0.532 | 0.567 | 0.616 | 0.685 | 0.782 | 0.921 | 1.123 | 1.478
318.15 K | 0.454 | 0.472 | 0.499 | 0.536 | 0.59 | 0.658 | 0.758 | 0.898 | 1.135

C1COCCO1 + CCCCCC
101 kPa
Conditions | viscosity [mPa·s]
303.15 K, x1 = 0.111 | 0.297
303.15 K, x1 = 0.1961 | 0.317
303.15 K, x1 = 0.3001 | 0.348
303.15 K, x1 = 0.4033 | 0.389
303.15 K, x1 = 0.4962 | 0.436
303.15 K, x1 = 0.5966 | 0.498
303.15 K, x1 = 0.7169 | 0.601
303.15 K, x1 = 0.8008 | 0.7
303.15 K, x1 = 0.8988 | 0.854
308.15 K, x1 = 0.1153 | 0.301
308.15 K, x1 = 0.2223 | 0.338
308.15 K, x1 = 0.3421 | 0.388
308.15 K, x1 = 0.4004 | 0.415
308.15 K, x1 = 0.5204 | 0.481
308.15 K, x1 = 0.7211 | 0.644
308.15 K, x1 = 0.8214 | 0.75
308.15 K, x1 = 0.9211 | 0.879
313.15 K, x1 = 0.1153 | 0.287
313.15 K, x1 = 0.2223 | 0.321
313.15 K, x1 = 0.3421 | 0.367
313.15 K, x1 = 0.4004 | 0.391
313.15 K, x1 = 0.5204 | 0.454
313.15 K, x1 = 0.6232 | 0.521
313.15 K, x1 = 0.7211 | 0.603
313.15 K, x1 = 0.8214 | 0.704
313.15 K, x1 = 0.9211 | 0.824
318.15 K, x1 = 0.1153 | 0.275
318.15 K, x1 = 0.2223 | 0.307
318.15 K, x1 = 0.3421 | 0.349
318.15 K, x1 = 0.4004 | 0.373
318.15 K, x1 = 0.5204 | 0.431
318.15 K, x1 = 0.6232 | 0.494
318.15 K, x1 = 0.7211 | 0.568
318.15 K, x1 = 0.8214 | 0.659
318.15 K, x1 = 0.9211 | 0.769

C1COCCO1 + CCCCCCC
viscosity [mPa·s], 101 kPa
Conditions | x1 = 0.1112 | x1 = 0.225 | x1 = 0.3223 | x1 = 0.4312 | x1 = 0.5017 | x1 = 0.6114 | x1 = 0.7213 | x1 = 0.8211 | x1 = 0.9112
308.15 K | 0.363 | 0.396 | 0.422 | 0.471 | 0.505 | 0.572 | 0.658 | 0.76 | 0.875
313.15 K | 0.354 | 0.381 | 0.409 | 0.446 | 0.475 | 0.535 | 0.618 | 0.713 | 0.814
318.15 K | 0.336 | 0.362 | 0.387 | 0.421 | 0.449 | 0.504 | 0.579 | 0.666 | 0.764

C1COCCO1 + CCCCCCCC
viscosity [mPa·s], 101 kPa
Conditions | x1 = 0.1324 | x1 = 0.2242 | x1 = 0.3234 | x1 = 0.4124 | x1 = 0.5114 | x1 = 0.6124 | x1 = 0.7332 | x1 = 0.8231 | x1 = 0.9222
308.15 K | 0.453 | 0.462 | 0.478 | 0.503 | 0.542 | 0.596 | 0.68 | 0.766 | 0.881
313.15 K | 0.431 | 0.44 | 0.452 | 0.476 | 0.512 | 0.561 | 0.64 | 0.717 | 0.828
318.15 K | 0.41 | 0.417 | 0.429 | 0.45 | 0.484 | 0.529 | 0.601 | 0.672 | 0.776

Brc1ccccc1 + CCCCCCCCCCCCCC
viscosity [mPa·s], 101 kPa
Conditions | x2 = 0.1001 | x2 = 0.2007 | x2 = 0.3005 | x2 = 0.3996 | x2 = 0.4985 | x2 = 0.5998 | x2 = 0.6987 | x2 = 0.8012 | x2 = 0.9011
298.15 K | 1.117 | 1.185 | 1.287 | 1.389 | 1.49 | 1.592 | 1.694 | 1.796 | 1.897
303.15 K | 1.042 | 1.13 | 1.218 | 1.306 | 1.394 | 1.482 | 1.57 | 1.658 | 1.746
308.15 K | 0.985 | 1.06 | 1.137 | 1.213 | 1.289 | 1.365 | 1.441 | 1.517 | 1.593
